Several values for one entry are separate records, joined by “and”; a condition that tells them apart may be missing. Equal entries are not always repeated. Where two headings read alike, the source gives them in different places.
Legend:
[1] = biological target: T1, acetylcholinesterase (AChE) (Homo sapiens, UniProt P22303); assay: biochemical
T1 construct: purchased Sigma 9000-81-1 (so in the source); this is the CAS number of acetylcholinesterase, not a catalogue number
Description: (§1) A spectrophotometric analysis was conducted by Ellman et al. to determine the inhibition of ChEs (AChE and BuChE). […] An incubation of 15 min was performed at room temperature with 140 L of sodium phosphate buffer (pH 8.0), 20 L of AChE/BuChE solution, and 20 L of the test sample. AChE/BuChE solutions containing DTNB were introduced into the 10 L solution to initiate the reaction. […] A percentage of inhibition was calculated using the ratio of enzyme activity in the presence of the test sample (E), minus enzyme activity without the test sample (S), expressed as E–S/E100. Each substance’s inhibition of substrate hydrolysis by ChE was quantified using its IC50 value (g/mL) or M. Compounds with the same IC50 values are calculated using the same standardized plot.

[2] = biological target: T2, butyrylcholinesterase (BuChE) (Homo sapiens, UniProt P06276); assay: biochemical
T2 construct: purchased Sigma 9001-08-5 (this is the CAS number of cholinesterase, not a catalogue number)
T2 sequence (P06276 29-602): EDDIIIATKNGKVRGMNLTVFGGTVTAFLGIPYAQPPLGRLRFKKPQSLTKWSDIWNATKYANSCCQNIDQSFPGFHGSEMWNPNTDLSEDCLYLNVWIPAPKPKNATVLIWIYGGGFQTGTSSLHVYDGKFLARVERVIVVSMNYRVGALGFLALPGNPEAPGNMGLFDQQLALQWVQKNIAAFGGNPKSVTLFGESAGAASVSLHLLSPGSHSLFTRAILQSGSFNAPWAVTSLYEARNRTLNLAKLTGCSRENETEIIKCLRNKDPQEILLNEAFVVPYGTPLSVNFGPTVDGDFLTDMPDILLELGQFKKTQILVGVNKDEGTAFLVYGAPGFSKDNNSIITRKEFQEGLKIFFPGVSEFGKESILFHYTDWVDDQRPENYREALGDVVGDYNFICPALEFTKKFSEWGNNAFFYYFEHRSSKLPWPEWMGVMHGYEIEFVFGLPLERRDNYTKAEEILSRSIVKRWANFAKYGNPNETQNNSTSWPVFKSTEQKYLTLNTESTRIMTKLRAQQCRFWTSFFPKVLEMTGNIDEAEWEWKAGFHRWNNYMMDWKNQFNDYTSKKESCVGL
Description: as §1

[3] = substrate ATCh, DTNB, pH 8.0, 15 min incubation, read-out: AChE IC50 ± SEM
[4] = printed without unit in Figure 2 (second value of each pair), read-out: BuChE IC50
[5] = substrate BTCh, DTNB, pH 8.0, 15 min incubation, read-out: BuChE IC50 ± SEM
[6] = printed without unit in text / Figure 2, read-out: AChE IC50

T1 sequence (P22303 32-614): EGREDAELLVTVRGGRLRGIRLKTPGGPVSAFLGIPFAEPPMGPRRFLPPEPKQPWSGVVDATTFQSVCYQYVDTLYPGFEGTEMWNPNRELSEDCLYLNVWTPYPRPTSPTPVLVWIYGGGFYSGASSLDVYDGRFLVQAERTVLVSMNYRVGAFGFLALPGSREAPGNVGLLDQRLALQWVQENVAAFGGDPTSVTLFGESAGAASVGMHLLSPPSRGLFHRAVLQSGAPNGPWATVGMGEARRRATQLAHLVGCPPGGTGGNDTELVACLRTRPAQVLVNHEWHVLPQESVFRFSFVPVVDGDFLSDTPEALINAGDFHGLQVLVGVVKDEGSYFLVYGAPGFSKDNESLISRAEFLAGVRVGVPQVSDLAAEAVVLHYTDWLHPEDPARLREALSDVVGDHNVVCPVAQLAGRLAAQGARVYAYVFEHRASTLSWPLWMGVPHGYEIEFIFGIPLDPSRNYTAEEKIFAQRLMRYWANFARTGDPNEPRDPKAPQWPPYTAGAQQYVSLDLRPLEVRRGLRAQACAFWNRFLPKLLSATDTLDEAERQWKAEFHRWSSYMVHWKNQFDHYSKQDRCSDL

Structure (SMILES)	IC50 [1, 3]	IC50 [2, 4] [nM]	IC50 [2, 5]	IC50 [1, 6] [nM]	AChE IC50 ([1]; printed without unit in text / Figure 2)
O=C1N/C(=N/c2nnc(-c3ccc4[nH]ncc4c3)s2)S/C1=C/c1cc(Cl)c(Cl)c([N+](=O)[O-])c1 [Compound 1, (Z)-2-((5-(1H-Indazol-5-yl)-1,3,4-Thiadiazol-2-yl)Imino)-5-((E)-3,4-Dichloro-5-Nitrobenzylidene)Thiazolidin-4-One]	860 nM and 1100 nM	1190 ± 420	890 nM and 1190 nM		
O=C1N/C(=N/c2nnc(-c3ccc4[nH]ncc4c3)s2)S/C1=C/c1ccccc1Cl [Compound 2, (Z)-2-((5-(1H-Indazol-5-yl)-1,3,4-Thiadiazol-2-yl)Imino)-5-((E)-2-Chlorobenzylidene)Thiazolidin-4-One]	3110 ± 590 nM		3360 ± 280 nM	3110 ± 590	
Cc1ccc(/C=C2/S/C(=N\c3nnc(-c4ccc5[nH]ncc5c4)s3)NC2=O)c(C)c1 [Compound 3, (Z)-2-((5-(1H-Indazol-5-yl)-1,3,4-Thiadiazol-2-yl)Imino)-5-((E)-2,4-Dimethylbenzylidene)Thiazolidin-4-One]	8260 ± 400 nM		8800 ± 130 nM	8260 ± 400	
Cc1cc(C)cc(/C=C2/S/C(=N\c3nnc(-c4ccc5[nH]ncc5c4)s3)NC2=O)c1 [Compound 4, (Z)-2-((5-(1H-Indazol-5-yl)-1,3,4-Thiadiazol-2-yl)Imino)-5-((E)-3,5-Dimethylbenzylidene)Thiazolidin-4-One]	8600 ± 1050 nM		8840 ± 980 nM	8600 ± 1050	
COc1ccc(/C=C2/S/C(=N\c3nnc(-c4ccc5[nH]ncc5c4)s3)NC2=O)cc1 [Compound 5, (Z)-2-((5-(1H-Indazol-5-yl)-1,3,4-Thiadiazol-2-yl)Imino)-5-((E)-4-Methoxybenzylidene)Thiazolidin-4-One]	10400 ± 980 nM		10600 ± 740 nM	10400 ± 980	
COc1cccc(/C=C2/S/C(=N\c3nnc(-c4ccc5[nH]ncc5c4)s3)NC2=O)c1 [Compound 6, (Z)-2-((5-(1H-Indazol-5-yl)-1,3,4-Thiadiazol-2-yl)Imino)-5-((E)-3-Methoxybenzylidene)Thiazolidin-4-One]	12700 ± 330 nM		13000 ± 150 nM	12700 ± 330	
O=C1N/C(=N/c2nnc(-c3ccc4[nH]ncc4c3)s2)S/C1=C/c1ccc([N+](=O)[O-])cc1 [Compound 7, (Z)-2-((5-(1H-Indazol-5-yl)-1,3,4-Thiadiazol-2-yl)Imino)-5-((E)-4-Nitrobenzylidene)Thiazolidin-4-One]	1400 ± 310 nM		1570 ± 280 nM		
O=C1N/C(=N/c2nnc(-c3ccc4[nH]ncc4c3)s2)S/C1=C/c1ccc(Cl)c(Cl)c1 [Compound 8, (Z)-2-((5-(1H-Indazol-5-yl)-1,3,4-Thiadiazol-2-yl)Imino)-5-((E)-3,4-Dichlorobenzylidene)Thiazolidin-4-one]	1220 ± 640 nM		1290 ± 410 nM		
O=C1N/C(=N/c2nnc(-c3ccc4[nH]ncc4c3)s2)S/C1=C/c1ccc(C(F)(F)F)cc1 [Compound 9, (Z)-2-((5-(1H-Indazol-5-yl)-1,3,4-Thiadiazol-2-yl)Imino)-5-((E)-4-(Trifluoromethyl)Benzylidene)Thiazolidin-4-One]	860 ± 300 nM	890 ± 120	890 ± 120 nM	860 ± 300	
O=C1N/C(=N/c2nnc(-c3ccc4[nH]ncc4c3)s2)S/C1=C/c1ccc(Br)cc1 [Compound 10, (Z)-2-((5-(1H-Indazol-5-yl)-1,3,4-Thiadiazol-2-yl)Imino)-5-((E)-4-Bromobenzylidene)Thiazolidin-4-One]	24680 ± 120 nM		25000 ± 440 nM	24680 ± 120	
O=C1N/C(=N/c2nnc(-c3ccc4[nH]ncc4c3)s2)S/C1=C/c1cccc(Br)c1 [Compound 11, (Z)-2-((5-(1H-Indazol-5-yl)-1,3,4-Thiadiazol-2-yl)Imino)-5-((E)-3-Bromobenzylidene)Thiazolidin-4-One]	26700 ± 840 nM		27080 ± 190 nM	26700 ± 840	
Cc1cc(Br)cc(/C=C2/S/C(=N\c3nnc(-c4ccc5[nH]ncc5c4)s3)NC2=O)c1 [Compound 12, (Z)-2-((5-(1H-Indazol-5-yl)-1,3,4-Thiadiazol-2-yl)Imino)-5-((E)-3-Bromo-5-Methylbenzylidene)Thiazolidin-4-One]	25120 ± 180 nM		26200 ± 670 nM	25120 ± 180	
O=C1N/C(=N/c2nnc(-c3ccc4[nH]ncc4c3)s2)S/C1=C/c1cccc2ccccc12 [Compound 13, (2Z,5E)-2-((5-(1H-Indazol-5-yl)-1,3,4-Thiadiazol-2-yl)Imino)-5-(Naphthalen-1-Ylmethylene)Thiazolidin-4-One]					no discernable activity
O=C1N/C(=N/c2nnc(-c3ccc4[nH]ncc4c3)s2)S/C1=C/c1ccc(F)cc1O [Compound 14, (Z)-2-((5-(1H-Indazol-5-yl)-1,3,4-Thiadiazol-2-yl)Imino)-5-((E)-4-Fluoro-2-Hydroxybenzylidene)Thiazolidin-4-One]	1100 nM and 920 nM	980 ± 480	1190 nM and 980 nM	920 ± 100	
O=C1N/C(=N/c2nnc(-c3ccc4[nH]ncc4c3)s2)S/C1=C/c1ccccc1F [Compound 15, (Z)-2-((5-(1H-Indazol-5-yl)-1,3,4-Thiadiazol-2-yl)Imino)-5-((E)-2-Fluorobenzylidene)Thiazolidin-4-One]	1240 ± 360 nM	1270 ± 400	1270 ± 400 nM	1240 ± 360	
O=C1N/C(=N/c2nnc(-c3ccc4[nH]ncc4c3)s2)S/C1=C/c1cccc(F)c1 [Compound 16, (Z)-2-((5-(1H-Indazol-5-yl)-1,3,4-Thiadiazol-2-yl)Imino)-5-((E)-3-Fluorobenzylidene)Thiazolidin-4-One]	1200 ± 580 nM	1200 ± 470	1200 ± 470 nM	1200 ± 580	
O=C1N/C(=N/c2nnc(-c3ccc4[nH]ncc4c3)s2)S/C1=C/c1ccc(Br)c([N+](=O)[O-])c1 [Compound 17, (Z)-2-((5-(1H-Indazol-5-yl)-1,3,4-Thiadiazol-2-yl)Imino)-5-((E)-4-Bromo-3-Nitrobenzylidene)Thiazolidin-4-One]	22300 ± 1000 nM		20500 ± 860 nM	22300 ± 1000	
